Patent publication US11028090B2 (Dong Wha Pharm. Co., Ltd., priority 2017, dated 2021)
Where two headings read alike, the source gives them in different places.

Target: BRD4 (BD1+BD2) bromodomain (Homo sapiens (Human), UniProt O60885)
Experiment: BRD4 binding inhibition (AlphaScreen, GST-BRD4 vs tetraacetylated histone H4 peptide)
Protocol: A mixture comprising 100 nM GST-BRD4 (BD1+BD2) and 100 nM biotinylated acetyl-histone H4 (Lys5,8,12,16) peptide was prepared in assay buffer (50 mM HEPES pH 7.4; 25 mM NaCl; 0.05% Tween 20; 0.1% bovine serum albumin (BSA); 10 mM dithiothreitol (DTT)). After adding 6 μl of the mixture to the diluent, 6 μl of the pre-mixed AlphaLISA Glutathione Acceptor Beads and AlphaScreen Streptavidin Donor Beads (PerkinElmer, 10 μg/ml in assay buffer, respectively) was added thereto. The samples were incubated in the dark at room temperature for 30 minutes (shaking at 300 rpm). Then, the signals were measured with PerkinElmer Envision HTS Multilabel Reader using an alpha screen protocol of PerkinElmer. Each plate contained the negative control in which biotinylated acetyl-histone H4 peptide and GST-BRD4 (BD1+BD2) were replaced by assay buffer. In the case of using the software GraphPad Prism for calculation, the negative control point was input as a low standard value. The positive control (probe molecule l-BET762 containing protein/peptide mixture) proceeded to pipetting.

[1] = GST-BRD4 (BD1+BD2) / biotinylated acetyl-histone H4 (Lys5,8,12,16) peptide, read-out: IC50, BRD4 binding inhibition
[2] = GST-BRD4 (BD1+BD2) vs biotinylated acetyl-histone H4 peptide, AlphaScreen, read-out: BRD4 IC50

Structure (SMILES)	IC50 [1] [nM]	IC50 [2] [nM]
COc1ccc2c(c1)nc(NCCCCNC(=O)OC(C)C)c1nnc(C(C)C)n12 [Example 628, [4-(1-isopropyl-7-methoxy-[1,2,4]triazolo[4,3-a]quinoxaline-4-ylamino)-butyl]-carbamic acid isopropylester]	≤ 50	48
Cc1nnc2c(NCCCCNC(=O)[C@H](O)C(C)C)nc3cc(N4CCSCC4)ccc3n12 [Example 524, N-[4-(7-thiomorphonyl-4-yl-1-methyl-[1,2,4]triazolo[4,3-a]quinoxaline-4-ylamino)-butyl]-2-(R)-hydroxy-3-methyl-butyramide]	–	69
COc1ccc2c(c1)nc(NCCCCNC(=O)[C@@H](C)O)c1nnc(C)n12 [Example 295, 2-(R)-hydroxy-N-[4-(7-methoxy-1-methyl-[1,2,4]triazolo[4,3-a]quinoxaline-4-ylamino)-butyl]-propaneamide]	≤ 50	33
Cc1nnc2c(NCCCCCC(=O)NC(C)C)nc3ccccc3n12 [Example 661, 6-(1-methyl-[1,2,4]triazolo[4,3-a]quinoxaline-4-ylamino)-hexanoic acid isopropylamide]	–	78
COc1ccc2c(c1)nc(NCCCCNC(=O)[C@@H](NC(=O)[C@H](C)O)C(C)C)c1nnc(C)n12 [Example 324, 2-(S)-(2-(S)-hydroxy-propionylamino)-N-[4-(7-methoxy-1-methyl-[1,2,4]triazolo[4,3-a]quinoxaline-4-ylamino)-butyl]-3-methyl-butyramide]	≤ 10	7
Cc1nnc2c(NCCCCNC(=O)c3ccc(Cl)nc3)nc3ccccc3n12 [Example 20, 6-chloro-N-[4-(1-methyl-[1,2,4]triazolo[4,3-a]quinoxaline-4-ylamino)-butyl]-nicotinamide]	≤ 50	43
COc1ccc2nc(NCCCCNC(=O)OC(C)(C)C)c3nnc(C)n3c2c1 [Example 121, [4-(8-methoxy-1-methyl-[1,2,4]triazolo[4,3-a]quinoxaline-4-ylamino)-butyl]-carbamic acid-tert-butylester]	–	55
COc1ccc2c(c1)nc(NCCCCNC(=O)[C@@H](N)Cc1ccc(O)cc1)c1nnc(C)n12 [Example 326, 2-(S)-amino-3-(4-hydroxy-phenyl)-N-[4-(7-methoxy-1-methyl-[1,2,4]triazolo[4,3-a]quinoxaline-4-ylamino)-butyl]-propionamide]	–	64
COc1cc(C)c2c(c1)nc(NCCCCNC(=O)OC(C)C)c1nnc(C)n12 [Example 457, [4-(7-methoxy-1,9-dimethyl-[1,2,4]triazolo[4,3-a]quinoxaline-4-ylamino)-butyl]-carbamic acid-isopropylester]	≤ 50	–
COc1c(C)ccc2c1nc(NCCCCNC(=O)OC(C)(C)C)c1nnc(C)n12 [Example 130, {4-[6-methoxy-1,7-dimethyl-[1,2,4]triazolo[4,3-a]quinoxaline-4-ylamino]-butyl}-carbamic acid-tert-butylester]	≤ 50	36
COCCOc1ccc2c(c1)nc(NCCCCNC(=O)C(C)(C)OC(C)=O)c1nnc(C)n12 [Example 384, acetic acid-1-{4-[7-(2-methoxy-ethoxy)-1-methyl-[1,2,4]triazolo[4,3-a]quinoxaline-4-ylamino]-butylcarbamoyl}-1-methyl-ethylester]	≤ 50	41
Cc1nnc2c(NCCCCNC(=O)OC(C)(C)C)nc3cc(N)ccc3n12 [Example 243, [4-(7-amino-1-methyl-[1,2,4]triazolo[4,3-a]quinoxaline-4-ylamino)-butyl]-carbamic acid-tert-butylester]	–	65
COc1cc2nc(NCCCCNC(=O)N3CCOCC3)c3nnc(C)n3c2cc1OC [Example 92, morpholine-4-carboxylic acid-[4-(7,8-dimethoxy-1-methyl-[1,2,4]triazolo[4,3-a]quinoxaline-4-ylamino)-butyl]-amide]	≤ 50	41
COc1cc(C(F)(F)F)cc2c1nc(NCCCCNC(=O)OC(C)C)c1nnc(C)n12 [Example 144, [4-(6-methoxy-1-methyl-8-trifluoromethyl-[1,2,4]triazolo[4,3-a]quinoxaline-4-ylamino)-butyl]-carbamic acid isopropylester]	≤ 50	38
Cc1nnc2c(NCCCCN)nc3cc(OC(C)C)ccc3n12 [Example 448, N^1-(7-isopropoxy-1-methyl-[1,2,4]triazolo[4,3-a]quinoxaline-4-yl)-butane-1,4-diamine ditrifluoroacetic acid]	≤ 10	5
Cc1nnc2c(NCCCCNC(=O)C(C)(C)O)nc3cc(-c4nc5ccccc5n4C)ccc3n12 [Example 232, 2-hydroxy-N-{4-(7-(1-methyl-1H-benzoimidazole-2-yl)-1-methyl-[1,2,4]triazolo[4,3-a]quinoxaline-4-ylamino)-butyl}-2-methyl-propionamide]	≤ 50	33

Structure (SMILES)	IC50 [1] [nM]	IC50 [2] [nM]
COc1ccc2c(c1)nc(NCCCCC(=O)NCc1ccccc1)c1nnc(C)n12 [Example 658]	≤ 50	26
COc1cc2nc(NCCCCNC(=O)C(C)(C)C)c3nnc(C)n3c2cc1C(F)(F)F [Example 477, N-[4-(7-methoxy-1-methyl-8-trifluoromethyl-[1,2,4]triazolo[4,3-a]quinoxaline-4-ylamino)-butyl]-2,2-dimethyl-propionamide]	≤ 50	20
Cc1nnc2c(NCCCCNC(=O)OC(C)(C)C)nc3cc(C(=O)NC(C)(C)C)ccc3n12 [Example 203, [4-(7-tert--butylcarbamoyl-1-methyl-[1,2,4]triazolo[4,3-a]quinoxaline-4-ylamino)-butyl]-carbamic acid-tert-butylester]	≤ 50	42
COc1ccc2c(c1)nc(NCCCCC(=O)NC(C)(C)C)c1nnc(C)n12 [Example 653, 5-(7-methoxy-1-methyl-[1,2,4]triazolo[4,3-a]quinoxaline-4-ylamino)-pentanoic acid-tert-butylamide]	≤ 50	16
COc1cc2nc(NCCCCNC(=O)CC(C)C)c3nnc(C)n3c2cc1Cc1ccc([N+](=O)[O-])cc1 [Example 339, N-{4-[7-methoxy-1-methyl-8-(4-nitro-benzyl)-[1,2,4]triazolo[4,3-a]quinoxaline-4-ylamino]-butyl}-3-methyl-butyramide]	≤ 50	46
COCCOc1ccc2c(c1)nc(NCCCCNC(=O)NC(C)(C)C)c1nnc(C)n12 [Example 424, 1-tert-butyl-3-{4-[7-(2-methoxy-ethoxy)-1-methyl-[1,2,4]triazolo[4,3-a]quinoxaline-4-ylamino]-butyl}-urea]	≤ 50	25
Cc1nnc2c(NCCCCNC(=O)OC(C)(C)C)nc3cc(OC(C)C)ccc3n12 [Example 447, [4-(7-isopropoxy-1-methyl-[1,2,4]triazolo[4,3-a]quinoxaline-4-ylamino)-butyl]-carbamic acid-tert-butylester]	≤ 50	21
Cc1nnc2c(NCCCCNC(=O)c3cccc(Cl)c3)nc3ccccc3n12 [Example 15, 3-chloro-N-[4-(1-methyl-[1,2,4]triazolo[4,3-a]quinoxaline-4-ylamino)-butyl]-benzamide]	≤ 50	27
Cc1nnc2c(NCCCCNC(=O)c3ccccc3)nc3ccc(F)cc3n12 [Example 51, N-[4-(8-fluoro-1-methyl-[1,2,4]triazolo[4,3-a]quinoxaline-4-ylamino)-butyl]-benzamide]	≤ 50	–
COc1cc2nc(NCCCCNC(=O)c3ccc(Cl)cc3)c3nnc(C)n3c2cc1OC [Example 100, 4-chloro-N-[4-(7,8-dimethoxy-1-methyl-[1,2,4]triazolo[4,3-a]quinoxaline-4-ylamino)-butyl]-benzamide]	–	69
Cc1ccc2nc(NCCCCNC(=O)c3ccccc3)c3nnc(C)n3c2c1 [Example 45, N-[4-(1,8-dimethyl-[1,2,4]triazolo[4,3-a]quinoxaline-4-ylamino)-butyl]-benzamide]	≤ 50	–
COC(=O)c1ccc2nc(NCCCCNC(=O)OC(C)(C)C)c3nnc(C)n3c2c1 [Example 530, 4-(4-tert-butoxycarbonylamino-butylamino)-1-methyl-[1,2,4]triazolo[4,3-a]quinoxaline-8-carboxylic acid methylester]	≤ 50	34
COCCOc1ccc2c(c1)nc(NCCCCNC(=O)C(C)(C)O)c1nnc(C)n12 [Example 385, 2-hydroxy-N-{4-(7-(2-methoxy-ethoxy)-1-methyl-[1,2,4]triazolo[4,3-a]quinoxaline-4-ylamino)-butyl}-2-methyl-propionamide]	≤ 50	49
Cc1nnc2c(NCCCCNC(=O)C(C)(C)C)nc3cc(Cl)c(Cl)cc3n12 [Example 28, N-[4-(7,8-dichloro-1-methyl-[1,2,4]triazolo[4,3-a]quinoxaline-4-ylamino)-butyl]-2,2-dimethyl-propionamide]	–	96
Cc1ccc2nc(NCCCCNC(=O)Nc3ccccc3)c3nnc(C)n3c2c1 [Example 46, 1-[4-(1,8-dimethyl-[1,2,4]triazolo[4,3-a]quinoxaline-4-ylamino)-butyl]-3-phenyl-urea]	–	73
